Test results published in US20110028447A1, “INDAZOLE DERIVATIVES” (Pfizer Inc., priority 2008, published 2011).

These compounds were tested against human CB1 receptor (Homo sapiens, UniProt P21554) (assay: Human CB1 receptor binding, [3H] CP-55,940 displacement on HEK cell membranes). Conditions: CB1 Ki.
human CB1 receptor, sequence (P21554 whole entry): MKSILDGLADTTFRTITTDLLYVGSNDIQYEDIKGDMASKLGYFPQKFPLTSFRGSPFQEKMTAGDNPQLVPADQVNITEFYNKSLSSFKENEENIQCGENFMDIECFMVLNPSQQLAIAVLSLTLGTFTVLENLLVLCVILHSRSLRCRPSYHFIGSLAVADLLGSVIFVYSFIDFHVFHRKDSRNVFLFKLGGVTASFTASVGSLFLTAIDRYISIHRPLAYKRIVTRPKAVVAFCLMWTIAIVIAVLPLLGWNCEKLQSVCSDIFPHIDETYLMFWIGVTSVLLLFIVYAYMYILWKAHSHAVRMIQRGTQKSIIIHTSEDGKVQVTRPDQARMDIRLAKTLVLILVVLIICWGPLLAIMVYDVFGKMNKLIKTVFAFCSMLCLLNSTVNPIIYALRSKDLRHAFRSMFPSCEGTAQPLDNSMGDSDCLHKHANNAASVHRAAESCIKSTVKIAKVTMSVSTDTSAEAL
Parameters: expressed in transfected cells; host or cells: HEK cells, doxycycline-induced; membrane preparation
Protocol: The Human CB1 receptor binding affinity and other biological activities of the compounds of this invention are determined by the following procedures. Membrane preparation: Human Embryonic Kidney (HEK) Cells expressing the human CB1 receptor under transcriptional regulation of a tetracycline inducible promoter were grown in Dulbecco's Modified Essential Medium with sodium pyruvate (Invitrogen, Carlsbad, Calif.) containing 10% tetracycline free fetal bovine serum (Clonetech, Mountain View, Calif.) 100 μg/ml hygromycin (Calbiochem, San Diego, Calif.), 5 μg/ml blasticidin (Invitrogen). CB1 receptor expression was induced by addition of 1 μg/ml doxycycline (Calbiochem) and incubation for an additional 24 hours. Cells were released from flasks using Cell Dissociation Buffer (Invitrogen). Cells were pelleted by centrifugation at 500×G for 5 minutes. Membranes were prepared by resuspending cells in ice cold TEE Buffer (25 mM Tris pH 7.4, 5 mM EDTA, 5 mM EGTA, Complete Protease Inhibitor (Roche, Basel, Switzerland)). Cells were lysed with 12 strokes of a dounce homogenizer. Unlysed cells were pelleted by centrifugation at 500×G for 5 minutes. Membranes were pelleted by centrifugation at 25,000×G for 30 minutes. Membranes were resuspended in TEE, dounced 12 strokes, and pelleted a second time at 25,000×G for 30 minutes. Membrane pellet was resuspended in 50 mM Tris pH 7.4, 100 mM NaCl, 3 mM MgCl2, 0.2 mM EGTA, Complete Protease Inhibitor (Roche). Protein concentration was determined using the Micro-BCA Protein Assay Kit (Pierce, Rockford, Ill.) using BSA as a standard. Membranes were quick frozen and stored at −80 degrees Celsius until use.
Binding experiments: 50 μl of test compound was incubated with 50 μl of [^3H] CP-55,940 (Perkin Elmer, Boston, Mass.) (final concentration=[…]) and 150 μl of membrane homogenate (1 μg/well) in polypropylene 96-well plates (Corning, Acton, Mass.). Final reaction conditions were 50 mM Tris pH 7.4, 100 mM NaCl, 3 mM MgCl2, 0.2 mM EGTA, 0.04% BSA. Nonspecific binding was determined by incubation with 50 μM WIN-55, 212-2 (Tocris, Ellisville, Mo.). After incubation at room temperature for 60 minutes reactions were harvested by vacuum filtration through Unifilter GF/B-96 filters (Perkin Elmer) that had been presoaked in assay buffer containing 0.5% BSA (Sigma, St. Louis, Mo.) using a FilterMate Plate Harvester (Perkin Elmer). Filters were rinsed 4 times with 50 mM Tris pH 7.4, 0.025% Tween-20 and dried at 50 degrees Celsius for at least 30 minutes. 40 μl of Microscint-20 (Perkin Elmer) was added per well, and plates were counted using a Top-Count Microplate Scintillation Counter (Perkin Elmer). Binding data were analyzed and EC50 and K, values calculated using Graph Pad Prism 4.0 Software.
For `CC(C)(C)[C@H](NC(=O)c1nn(Cc2ccc(C#N)cc2)c2cc(F)ccc12)C(=O)NCC1CCC(=O)N1` (some centres unmarked) [Example 403], the Ki was > 400 nM. Compound `CC(C)NC(=O)[C@@H](NC(=O)c1nn(Cc2ccc(C#N)cc2)c2ccccc12)C(C)(C)C` [Example 405] has a Ki of 48.1 nM. For `CC(C)(C)[C@H](NC(=O)c1nn(Cc2ccc(C#N)cc2)c2ccccc12)C(=O)NC1CCC1` [Example 406], the Ki was 89.7 nM. `CC(C)(C)[C@H](NC(=O)c1nn(Cc2ccc(C#N)cc2)c2ccccc12)C(=O)NCC1CC1` [Example 407] gave a Ki of 36.2 nM. `CC(C)(C)[C@H](NC(=O)c1nn(Cc2ccc(C#N)cc2)c2ccccc12)C(=O)NO` [Example 412] was tested, and the Ki was > 400 nM. For `CC(C)(C)[C@H](NC(=O)c1nn(Cc2ccc(F)cc2)c2ccc(Cl)cc12)C(=O)NCCO` [Example 428], the Ki was 0.89 nM. `CC(C)(C)[C@H](NC(=O)c1nn(Cc2ccc(F)cc2)c2ccc(Cl)cc12)C(N)=O` [Example 429] showed a Ki of 0.44 nM. `CC(C)(C)[C@H](NC(=O)c1nn(Cc2ccc(F)cc2)c2ccc(Cl)cc12)C(=O)NCC(N)=O` [Example 430] gave a Ki of 18.2 nM. `CC(C)(C)[C@H](NC(=O)c1nn(Cc2ccc(F)cc2)c2ccc(Cl)cc12)C(=O)NC[C@H](O)CO` [Example 431] was tested, and the Ki was 13.6 nM. `CC(C)(C)[C@H](NC(=O)c1nn(Cc2ccc(F)cc2)c2ccc(Cl)cc12)C(=O)NCCS(C)(=O)=O` [Example 433] showed a Ki of 35.5 nM. With `CC(C)(C)[C@H](NC(=O)c1nn(Cc2ccc(F)cc2)c2ccc(Cl)cc12)C(=O)NC[C@@H](O)CO` [Example 434] the Ki was 55.1 nM. `CC(C)(C)[C@H](NC(=O)c1nn(Cc2ccc(F)cc2)c2ccc(Cl)cc12)C(=O)NC(CO)CO` [Example 435] was tested, and the Ki was 6.5 nM. In the case of `CC(C)(C)[C@H](NC(=O)c1nn(Cc2ccc(F)cc2)c2ccc(Cl)cc12)C(=O)NC1CC1` [Example 436], the Ki is reported as 1.13 nM. In the case of `CC(C)NC(=O)[C@@H](NC(=O)c1nn(Cc2ccc(F)cc2)c2ccc(Cl)cc12)C(C)(C)C` [Example 437], the Ki is reported as 2.79 nM. Work on `CC(C)(C)[C@H](NC(=O)c1nn(Cc2ccc(F)cc2)c2ccc(Cl)cc12)C(=O)NCC1CC1` [Example 439] yielded a Ki of 3.26 nM. For `CC(C)(C)[C@H](NC(=O)c1nn(Cc2ccc(C#N)cc2)c2ccc(Cl)cc12)C(N)=O` [Example 440], the Ki was 104 nM. In the case of `CC(C)(C)[C@H](NC(=O)c1nn(Cc2ccc(C#N)cc2)c2ccc(Cl)cc12)C(=O)NC[C@H](O)CO` [Example 441], the Ki is reported as > 400 nM. `CC(C)(C)[C@H](NC(=O)c1nn(Cc2ccc(C#N)cc2)c2ccc(Cl)cc12)C(=O)NCCS(C)(=O)=O` [Example 442] was tested, and the Ki was > 400 nM. `CC(C)(C)[C@H](NC(=O)c1nn(Cc2ccc(C#N)cc2)c2ccc(Cl)cc12)C(=O)NCC(N)=O` [Example 443] was tested, and the Ki was > 400 nM. In the case of `CC(C)(C)[C@H](NC(=O)c1nn(Cc2ccc(C#N)cc2)c2ccc(Cl)cc12)C(=O)NCCS(N)(=O)=O` [Example 444], the Ki is reported as > 400 nM. `CC(C)(C)[C@H](NC(=O)c1nn(Cc2ccc(C#N)cc2)c2ccc(Cl)cc12)C(=O)NC[C@@H](O)CO` [Example 445] was tested, and the Ki was > 400 nM. `CC(C)(C)[C@H](NC(=O)c1nn(Cc2ccc(C#N)cc2)c2ccc(Cl)cc12)C(=O)NC1CC1` [Example 446] was tested, and the Ki was 168 nM. `CC(C)(C)[C@H](NC(=O)c1nn(Cc2ccc(C#N)cc2)c2ccc(Cl)cc12)C(=O)NCCO` [Example 447] showed a Ki of 170 nM. In the case of `CC(C)(C)[C@H](NC(=O)c1nn(Cc2ccc(C#N)cc2)c2ccc(Cl)cc12)C(=O)NC(CO)CO` [Example 448], the Ki is reported as > 400 nM. In the case of `CC(C)(C)[C@H](NC(=O)c1nn(Cc2ccc(C#N)cc2)c2ccc(Cl)cc12)C(=O)NC1CCC1` [Example 449], the Ki is reported as > 400 nM. Work on `CC(C)NC(=O)[C@@H](NC(=O)c1nn(Cc2ccc(C#N)cc2)c2ccc(Cl)cc12)C(C)(C)C` [Example 450] yielded a Ki of 241 nM. For `CC(C)(C)[C@H](NC(=O)c1nn(Cc2ccc(C#N)cc2)c2ccc(Cl)cc12)C(=O)NCC1CC1` [Example 451], the Ki was > 400 nM. `CC(C)(C)[C@H](NC(=O)c1nn(Cc2ccc(C#N)cc2)c2ccccc12)C(=O)N[C@H]1CNC(=O)C1` [Example 452] was tested, and the Ki was > 400 nM. In the case of `CC(C)(C)[C@H](NC(=O)c1nn(Cc2ccc(C#N)cc2)c2c(F)cccc12)C(=O)N[C@H]1CNC(=O)C1` [Example 453], the Ki is reported as > 400 nM. In the case of `CC(C)(C)[C@H](NC(=O)c1nn(Cc2ccc(C#N)cc2)c2cc(F)ccc12)C(=O)N[C@H]1CNC(=O)C1` [Example 454], the Ki is reported as > 400 nM. Compound `CC(C)(C)[C@H](NC(=O)c1nn(Cc2ccc(F)cc2)c2ccccc12)C(=O)N[C@H]1CNC(=O)C1` [Example 455] has a Ki of 33.6 nM. `CC(C)(C)[C@H](NC(=O)c1nn(Cc2ccc(C#N)cc2)c2ccccc12)C(=O)N[C@@H]1CNC(=O)C1` [Example 456] was tested, and the Ki was 43.8 nM. Compound `CC(C)(C)[C@H](NC(=O)c1nn(Cc2ccc(C#N)cc2)c2cc(F)ccc12)C(=O)N[C@@H]1CNC(=O)C1` [Example 458] has a Ki of 120 nM. `CC(C)(C)[C@H](NC(=O)c1nn(Cc2ccc(C#N)cc2F)c2ccccc12)C(=O)NCCC(N)=O` [Example 471] was tested, and the Ki was > 400 nM.

Same assay, conditions: read-out: CB1 Ki
`CN1CC(CNC(=O)[C@@H](NC(=O)c2nn(Cc3ccc(C#N)cc3)c3ccccc23)C(C)(C)C)CC1=O` (some centres unmarked) [Example 408] was tested, and the Ki was > 400 nM. Work on `CN1CC(CNC(=O)[C@@H](NC(=O)c2nn(Cc3ccc(C#N)cc3)c3c(F)cccc23)C(C)(C)C)CC1=O` (some centres unmarked) [Example 409] yielded a Ki of 73 nM. `CN1CC(CNC(=O)[C@@H](NC(=O)c2nn(Cc3ccc(C#N)cc3)c3cc(F)ccc23)C(C)(C)C)CC1=O` (some centres unmarked) [Example 410] was tested, and the Ki was 104 nM. `CC(C)(C)[C@H](NC(=O)c1nn(Cc2ccc(F)cc2)c2ccccc12)C(=O)NCc1nnc2n1CCC2` [Example 419] gave a Ki of 110 nM. Work on `CC(C)(C)[C@H](NC(=O)c1nn(Cc2ccc(F)cc2)c2c(Cl)cccc12)C(=O)NCc1ccc(C(=O)O)cc1` [Example 426] yielded a Ki of 90 nM. `CC(C)(C)[C@H](NC(=O)c1nn(Cc2ccc(F)cc2)c2ccccc12)C(=O)NCc1[nH]nc2c1CCC2` [Example 460] showed a Ki of 24.6 nM. In the case of `CC(C)(C)[C@H](NC(=O)c1nn(Cc2ccc(C#N)cc2)c2ccccc12)C(=O)NCc1nnc(C(=O)NCCO)o1` [Example 461], the Ki is reported as > 400 nM. For `CC(C)(C)[C@H](NC(=O)c1nn(Cc2ccc(C#N)cc2)c2cc(F)ccc12)C(=O)NCc1nnc(C(=O)NCCO)o1` [Example 463], the Ki was 274 nM. `CC(C)(C)[C@H](NC(=O)c1nn(Cc2ccc(C#N)cc2)c2c(F)cccc12)C(=O)NCc1nnc(C(=O)NCCO)o1` [Example 464] was tested, and the Ki was 58 nM. `CC(C)(C)[C@H](NC(=O)c1nn(Cc2ccc(C#N)cc2)c2ccccc12)C(=O)NCCN1CCNC(=O)C1` [Example 465] was tested, and the Ki was > 400 nM. In the case of `CC(C)(C)[C@H](NC(=O)c1nn(Cc2ccc(C#N)cc2F)c2ccccc12)C(=O)NCCN1CCNC(=O)C1` [Example 466], the Ki is reported as > 400 nM. For `CC(C)(C)[C@H](NC(=O)c1nn(Cc2ccc(F)cc2)c2ccccc12)C(=O)NCCN1CCNC(=O)C1` [Example 467], the Ki was 53.8 nM. `CC(C)(C)[C@H](NC(=O)c1nn(Cc2ccc(F)cc2F)c2ccccc12)C(=O)NCCN1CCNC(=O)C1` [Example 468] showed a Ki of 23.5 nM. For `CC(C)(C)[C@H](NC(=O)c1nn(Cc2ccc(F)c(F)c2)c2ccccc12)C(=O)NCCN1CCNC(=O)C1` [Example 469], the Ki was 80.7 nM. `CC(C)(C)[C@H](NC(=O)c1nn(Cc2ccc(F)cc2)c2c(F)cccc12)C(=O)NCCN1CCNC(=O)C1` [Example 474] was tested, and the Ki was 41.2 nM. `CC(C)(C)[C@H](NC(=O)c1nn(Cc2ccc(F)cc2)c2ccc(Cl)cc12)C(=O)NCCN1CCNC(=O)C1` [Example 475] was tested, and the Ki was 141 nM.
